Reference: patent US6372740B1, “2-aryl-8-oxodihydropurine derivative, process for the producing the same, medicinal compositions containing the same, and intermediates thereof” (Dainippon Pharmaceutical Co., Ltd., priority 1997, dated 2002)

How the values were obtained:
BZω3 receptor = molecular target: T1, BZω3 receptor (Rattus norvegicus, UniProt P16257); experiment: BZω3 (peripheral) benzodiazepine receptor binding assay, [3H] 4'-chlorodiazepam (Ro 5-4864); details: rat kidney membrane, [3H] Ro 5-4864 0.5 nM, 150 minutes at 0° C.; read-out: ω3 IC50
T1 construct: from tissue; host or cells: rat (Wistar) kidney membrane fraction
Protocol: Experiment 1: Central (ω1,ω2) and Peripheral (ω3) Benzodiazepine Receptor Binding Assays
BZω1 and BZω2 receptor binding assays and the preparation of receptor membrane fractions therefor were carried out according to the method of Stephens, D. N. et al. [cf., J. Pharmacol. Exp. Ther., 253, 334-343 (1990)], and BZω3 receptor binding assay and the preparation of receptor membrane fraction therefor were done according to the method of Schoemaker, H. [cf, J. Pharmacol. Exp. Ther., 225, 61-69 (1983)] each with slight modification.
Receptor membrane fractions for ω1, ω2 and ω3 were prepared from the cerebellum (ω1), spinal cord (ω2) or kidney (ω3) in 7-8 week old male rats of Wistar strain, respectively, by the procedure described below.
After the cerebellum or spinal cord was homogenized with 20 volumes of ice-cold 50 mM Tris-citrate buffer (pH 7.1), the homogenate was centrifuged for 15 minutes at 40,000 g. The pellet obtained was washed 4 times by the same procedure, and frozen and stored for 24 hours at −60° C. The resulting pellet, after being thawed, washed with the buffer and centrifuged, was suspended in the buffer I for the binding assay (50 mM Tris-HCl buffer containing 120 mM NaCl, 5 mM KCl, 2 mM CaCl2 and 1 mM MgCl2; pH 7.4) and the suspension thus obtained (containing 1 g wet tissue/40 ml) was used for the BZω1 and BZω2receptor binding assays. On the other hand, the kidney was homogenized with 20 volumes of the ice-cold buffer II for the binding assay (50 mM Na-K phosphate buffer containing 100 mM NaCl; pH 7.4), and the mixture was filtered through 4 sheets of gauze, and centrifuged for 20 minutes at 40,000 g. The pellet obtained was suspended in the buffer II and the suspension (containing 1 g wet tissue/100 ml) was used for the binding assay as BZω3 receptor membrane source.
[^3H] Flumazenil (Ro 15-1788) (final concentration: 0.3 nM for ω1, and 1 nM for ω2) and flunitrazepam (final concentration: 10 μM) were used for the BZω1 or BZω2 receptor binding assays as the isotope-labeled and unlabeled ligands, respectively. For the BZω3 receptor binding assay, [^3H] 4′-chlorodiazepam (7-chloro-1,3-dihydro-1-methyl-5-(4-chlorophenyl)-2H-1,4-diazepin-2-one) (Ro 5-4864) (final concentration: 0.5 nM) and diazepam (final concentration: 100 μM) were used as the isotope-labeled and unlabeled ligands, respectively. Incubation was performed for 30 minutes at 37° C. in the BZω1 or BZω2 receptor binding assays, and for 150 minutes at 0° C. in the BZω3 receptor binding assay. The BZω1 or BZω2 receptor binding assays were carried out in the presence of bicuculline (final concentration: 100 μM).
The binding assay was performed by the following procedure. After adding each test compound at certain known concentrations, a [^3H] ligand, and the buffer I or II to each test tube, each assay was started by addition of membrane preparation (total volume of 1 ml). After incubation, the assay was terminated by filtration with suction through a Whatman GF/B glass fiber filter using a cell harvester (Brandel, USA). The filters were rapidly washed 3 times with 5 ml of ice-cold 50 mM Tris-HCl buffer (pH 7.7) for ω1 and ω2, or the buffer II for ω3, and transferred to scintillation vials containing 10 ml liquid scintillation cocktail (ACS-II, Amersham, USA). After being allowed to stand for a specific period, retained radioactivity was counted by a liquid scintillation spectrometer. Specific binding of [^3H] ligands was calculated as the difference between amounts of radioactivity bound in the presence and absence of excess unlabeled ligands. The concentration of the test compounds causing 50% inhibition of specific binding of the [3H] ligand (IC50) was determined by probit analysis.

| SMILES | IC50 (BZω3 receptor) [nM] | melting point [°C] |
| --- | --- | --- |
| CN(C(=O)Cn1c(=O)n(C)c2nc(-c3ccc(Cl)cc3)ncc21)c1ccccc1 [Example 4] | 1.6 | 188 to 190 |
| COc1ccc(-c2ncc3c(n2)n(C)c(=O)n3CC(=O)N(C)c2ccccc2)cc1 [Example 6] | 2 | 176 to 178 |
| CCn1c(=O)n(CC(=O)N(C)c2ccccc2)c2cnc(-c3ccccc3)nc21 [Example 8] | – | 160 to 161 |
| CCN(C(=O)Cn1c(=O)[nH]c2nc(-c3ccccc3)ncc21)c1ccccc1 [Example 9] | – | 281 to 284 |
| CCN(C(=O)Cn1c(=O)n(C)c2nc(-c3cccc(Cl)c3)ncc21)c1ccccc1 [Example 10] | 1 | 195 to 196 |
| CCN(C(=O)Cn1c(=O)n(C)c2nc(-c3ccc(Cl)cc3)ncc21)c1ccccc1 [Example 11] | – | 174 to 175 |
| CCN(C(=O)Cn1c(=O)n(C)c2nc(-c3ccc(OC)cc3)ncc21)c1ccccc1 [Example 13] | 2.9 | 179 to 181 |
| CCN(C(=O)Cn1c(=O)n(CC)c2nc(-c3ccccc3)ncc21)c1ccccc1 [Example 16] | – | 165 to 167 |
| CCCn1c(=O)n(CC(=O)N(CC)c2ccccc2)c2cnc(-c3ccccc3)nc21 [Example 17] | – | 138 to 139 |
| CCN(CC)C(=O)Cn1c(=O)n(C)c2nc(-c3ccccc3)ncc21 [Example 19] | – | 207 to 209 |
| CCN(CC)C(=O)Cn1c(=O)n(CC)c2nc(-c3ccccc3)ncc21 [Example 25] | – | 148 to 150 |
| CCCN(CCC)C(=O)Cn1c(=O)n(C)c2nc(-c3ccccc3)ncc21 [Example 26] | 2.3 | 133 to 134 |
| CCCN(CCC)C(=O)Cn1c(=O)n(C)c2nc(-c3ccc(F)cc3)ncc21 [Example 29] | 4.5 | 154 to 155 |
| CCCN(CCC)C(=O)Cn1c(=O)n(CC)c2nc(-c3ccccc3)ncc21 [Example 33] | – | 134 to 135 |
| CCCN(CC)C(=O)Cn1c(=O)n(C)c2nc(-c3ccccc3)ncc21 [Example 34] | – | 150 to 151 |
| CN(C)C(=O)Cn1c(=O)n(C)c2nc(-c3ccccc3)ncc21 [Example 35] | – | 204 to 206 |
| CN(C(=O)Cn1c(=O)n(C)c2nc(-c3cccnc3)ncc21)c1ccccc1 [Example 37] | 2.8 | 209 to 211 |
| CCN(C(=O)Cn1c(=O)n(C)c2nc(-c3cccnc3)ncc21)c1ccccc1 [Example 38] | – | 195 to 196 |
| CCN(C(=O)Cn1c(=O)n(C)c2nc(-c3cccs3)ncc21)c1ccccc1 [Example 39] | 1.3 | 236 to 238 |
| CCN(C(=O)Cn1c(=O)n(C)c2nc(-c3ccsc3)ncc21)c1ccccc1 [Example 40] | 1.6 | 226 to 228 |
| CCN(C(=O)Cn1c(=O)n(C)c2nc(-c3ccccc3)nc(-c3ccccc3)c21)c1ccccc1 [Example 41] | – | 185 to 187 |
| CN(Cc1ccccc1)C(=O)Cn1c(=O)n(C)c2nc(-c3ccccc3)ncc21 [Example 48, N-benzyl-8,9-dihydro-9-methyl-N-methyl-8-oxo-2-phenyl-7H-purin-7-acetamide] | 0.68 | – |
| CN(Cc1ccccc1)C(=O)Cn1c(=O)n(C)c2nc(-c3ccc(Cl)cc3)ncc21 [Example 49] | 1.4 | 210 to 211 |
| COc1ccc(-c2ncc3c(n2)n(C)c(=O)n3CC(=O)N(C)Cc2ccccc2)cc1 [Example 51] | 1.2 | 205 to 206 |
| CCCN(C(=O)Cn1c(=O)n(C)c2nc(-c3ccccc3)ncc21)c1ccccc1 [Example 60] | – | 221 to 223 |
| CCCN(C(=O)Cn1c(=O)n(CC)c2nc(-c3ccccc3)ncc21)c1ccccc1 [Example 61] | – | 168 to 170 |

| SMILES | IC50 (BZω3 receptor) [nM] | melting point [°C] |
| --- | --- | --- |
| CCCCN(C(=O)Cn1c(=O)n(C)c2nc(-c3ccccc3)ncc21)c1ccccc1 [Example 62] | – | 207 to 209 |
| CCCCN(CCCC)C(=O)Cn1c(=O)n(C)c2nc(-c3ccccc3)ncc21 [Example 63] | – | 138 to 139 |
| CN(Cc1ccc(F)cc1)C(=O)Cn1c(=O)n(C)c2nc(-c3ccccc3)ncc21 [Example 69, N-(4-fluorobenzyl)-8,9-dihydro-9-methyl-N-methyl-8-oxo-2-phenyl-7H-purin-7-acetamide] | 0.55 | – |
| CCN(Cc1ccc(Cl)cc1)C(=O)Cn1c(=O)n(C)c2nc(-c3ccccc3)ncc21 [Example 77] | – | 198 to 199 |
| CN(C(=O)Cn1c(=O)[nH]c2cnc(-c3cccnc3)nc21)c1ccccc1 [Example 84] | – | 268 to 270 |
| CCN(CC)C(=O)Cn1c(=O)[nH]c2cnc(-c3ccccc3)nc21 [Example 85] | – | 222 to 224 |
| CN(C)C(=O)Cn1c(=O)[nH]c2cnc(-c3ccccc3)nc21 [Example 86] | – | > 300 |
| CCCCN(CCCC)C(=O)Cn1c(=O)[nH]c2cnc(-c3ccccc3)nc21 [Example 95] | – | 196 to 198 |
| CCCN(C(=O)Cn1c(=O)[nH]c2cnc(-c3ccccc3)nc21)c1ccccc1 [Example 96] | – | 258 to 260 |
| CCCN(CCC)C(=O)Cn1c(=O)[nH]c2cnc(-c3ccc(Cl)cc3)nc21 [Example 97, 2-(4-chlorophenyl)-7,8-dihydro-8-oxo-N,N-dipropyl-9H-purin-9-acetamide] | 0.35 | – |
| CN(C(=O)Cn1c(=O)[nH]c2cnc(-c3ccccc3)nc21)c1ccccc1 [Example 98] | – | 286 to 287 |
| CCCN(CCC)C(=O)Cn1c(=O)n(CCC)c2cnc(-c3ccccc3)nc21 [Example 120] | – | 125 to 127 |
| CCCCn1c(=O)n(CC(=O)N(CCC)CCC)c2nc(-c3ccccc3)ncc21 [Example 122] | – | 129 to 130 |
| CCN(CC)C(=O)Cn1c(=O)n(C)c2cnc(-c3ccccc3)nc21 [Example 124] | – | 204 to 206 |
| CCN(CC)C(=O)Cn1c(=O)n(CC)c2cnc(-c3ccccc3)nc21 [Example 125] | – | 198 to 200 |
| CCCn1c(=O)n(CC(=O)N(CC)CC)c2nc(-c3ccccc3)ncc21 [Example 126] | – | 141 to 143 |
| CN(C)C(=O)Cn1c(=O)n(C)c2cnc(-c3ccccc3)nc21 [Example 127] | – | 262 to 264 |
| CCn1c(=O)n(CC(=O)N(C)C)c2nc(-c3ccccc3)ncc21 [Example 128] | – | 187 to 189 |
| CCCCN(CCCC)C(=O)Cn1c(=O)n(C)c2cnc(-c3ccccc3)nc21 [Example 134] | – | 192 to 193 |
| CCCCN(CCCC)C(=O)Cn1c(=O)n(CC)c2cnc(-c3ccccc3)nc21 [Example 135] | – | 135 to 136 |
| CCN(Cc1ccccc1)C(=O)Cn1c(=O)n(C)c2cnc(-c3ccccc3)nc21 [Example 146, N-benzyl-N-ethyl-7,8-dihydro-7-methyl-8-oxo-2-phenyl-9H-purin-9-acetamide] | 0.85 | – |
| CCCn1c(=O)n(CC(=O)N(C)c2ccccc2)c2nc(-c3ccccc3)ncc21 [Example 158] | – | 183 to 185 |
| CCN(C(=O)Cn1c(=O)n(CC)c2cnc(-c3ccccc3)nc21)c1ccccc1 [Example 167] | – | 154 to 155 |
| CCCn1c(=O)n(CC(=O)N(CC)c2ccccc2)c2nc(-c3ccccc3)ncc21 [Example 168] | – | 140 to 142 |
| CCCN(C(=O)Cn1c(=O)n(C)c2cnc(-c3ccccc3)nc21)c1ccccc1 [Example 169] | – | 174 to 176 |
| CN(C(=O)Cn1c(=O)n(C)c2cnc(-c3cccnc3)nc21)c1ccccc1 [Example 171] | – | 216 to 217 |
